Marks after values point to notes of the source that are not given here. No end group written: not given here.
Assays:
Format in all cases: in vivo, human
[1] = tested on: Patients with BPH; experiment: Example One: incidence of acute urinary retention after intraprostatic injection, double-blind, BPH patients; conditions: patients with BPH who received intraprostatic SEQ ID NO: 66 2.5 mg at least once (initial or subsequent treatment); after 2 years; followed 1 to 6 years; p < .05 vs control
Description: Patients with BPH were given an intraprostatic injection of either a) SEQ ID NO. 66 (Ile-Asp-Gln-Gln-Val-Leu-Ser-Arg-Ile-Lys-Leu-Glu-Ile-Lys-Arg-Cys-Leu) in phosphate buffered saline pH 7.2 (“PBS”) or b) PBS alone, under double-blind conditions by a urologist in an office setting under ultrasound guidance. Patients were followed for 1 to 6 years with regular physical examinations, laboratory tests, and evaluations of symptoms. Both groups of subjects were subsequently given either 1) no further treatment; 2) conventional oral medications such as alpha blockers or 5-alpha reductase inhibitors; 3) an intraprostatic injection of SEQ ID NO. 66 2.5 mg or 4) more than one of the preceding. The overall incidence of acute urinary retention in all patients who received intraprostatic SEQ ID NO. […] 66 under similar conditions.

[2] = tested on: Patients with BPH; experiment: Example Two: acute urinary retention after vehicle injection followed by oral medications or SEQ ID NO. 66; conditions: PBS vehicle injection followed by intraprostatic injection of SEQ ID NO: 66; followed 1 to 6 years
Description: Patients with BPH were given an intraprostatic injection of PBS pH 7.2 vehicle alone, under double-blind conditions by a urologist in an office setting under ultrasound guidance. Patients were followed for 1 to 6 years with regular physical examinations, laboratory tests, and evaluations of symptoms, and treatments. […] 66 (Ile-Asp-Gln-Gln-Val-Leu-Ser-Arg-Ile-Lys-Leu-Glu-Ile-Lys-Arg-Cys-Leu).

[3] = tested on: Patients with BPH; experiment: Example 3: acute urinary retention after vehicle or SEQ ID NO. 66 followed by oral BPH medications; conditions: SEQ ID NO: 66 2.5 mg intraprostatic followed by oral medications; followed 1 to 6 years; p < .02
Procedure: In this example, patients with BPH were given an intraprostatic injection of PBS pH 7.2 vehicle alone or an injection of SEQ ID NO. 66 (Ile-Asp-Gln-Gln-Val-Leu-Ser-Arg-Ile-Lys-Leu-Glu-Ile-Lys-Arg-Cys-Leu), 2.5 mg in PBS, under double-blind conditions by a urologist in an office setting under ultrasound guidance. Patients were followed for 1 to 6 years with regular physical examinations, laboratory tests, and evaluations of symptoms, and treatments. […] 66 and who subsequently received conventional oral medications used to treat BPH such as the classes of approved medications listed above.

[4] = tested on: Patients with BPH; experiment: Example 4: acute urinary retention within 24 months, SEQ ID NO. 66 followed by oral medications or second injection vs vehicle
Procedure: Patients with BPH were given an intraprostatic injection under double-blind conditions by a urologist in an office setting under ultrasound guidance of either a) SEQ ID NO. 66 (Ile-Asp-Gln-Gln-Val-Leu-Ser-Arg-Ile-Lys-Leu-Glu-Ile-Lys-Arg-Cys-Leu), in phosphate buffered saline pH 7.2 (“PBS”); or b) SEQ ID NO. 66 in phosphate buffered saline pH 7.2 followed by a second injection of SEQ ID NO. 66 2.5 mg one month to 2 years later; or c) PBS vehicle alone followed by conventional oral BPH medications used to treat BPH including alpha blockers such as tamsulosin, terazosin, doxazosin, or 5-alpha reductase inhibitors such as finasteride, dutasteride, or phosphodiesterase type 5 inhibitors (PDE5 inhibitors) such as tadalafil. Patients were followed for 2 years with regular physical examinations, laboratory tests, and evaluations of symptoms. […] 66 followed by conventional medication or by another injection of SEQ ID NO. 66 there were >75% fewer instances of acute urinary retention compared to subjects who were administered only a control injection of vehicle alone.

[5] = tested on: Patients with BPH; experiment: Example 5: acute urinary retention, follow-up up to 6 years, SEQ ID NO. 66 followed by oral medications or second injection vs vehicle
Procedure: Patients with BPH were administered an intraprostatic injection under double-blind conditions by a urologist in an office setting under ultrasound guidance of either a) SEQ ID NO. 66 (Ile-Asp-Gln-Gln-Val-Leu-Ser-Arg-Ile-Lys-Leu-Glu-Ile-Lys-Arg-Cys-Leu), in phosphate buffered saline pH 7.2 (“PBS”), followed by conventional oral BPH medications used to treat BPH including alpha blockers such as tamsulosin, terazosin, doxazosin, or 5-alpha reductase inhibitors such as finasteride, dutasteride, or phosphodiesterase type 5 inhibitors (PDE5 inhibitors) such as tadalafil. Patients were followed for up to 6 years with regular physical examinations, laboratory tests, and evaluations of symptoms; b) SEQ ID NO. 66 in phosphate buffered saline pH 7.2 followed by a second injection of SEQ ID NO. 66 2.5 mg one month to 2 years later; or c) PBS vehicle alone. […] 66 followed by conventional medication or by another injection of SEQ ID NO.

IDQQVLSRIKLEIKRCL [SEQ ID NO: 66]
Incidence of acute urinary retention [1]: 1.4%* | Incidence of acute urinary retention [2]: 2.1% | Incidence of acute urinary retention [3]: 0%* | fewer instances of acute urinary retention compared to vehicle alone ([4]; SEQ ID NO. 66 followed by conventional medication or another injection of SEQ ID NO. 66, 2 years): > 75% | Incidence of acute urinary retention (<24 months) ([4]; SEQ ID NO: 66 intraprostatic followed by oral medications or another injection of SEQ ID NO: 66, followed 2 years, p < .03): 0.76%* | fewer instances of acute urinary retention compared to vehicle alone ([5]; SEQ ID NO. 66 followed by conventional medication or another injection of SEQ ID NO. 66, up to 6 years): > 75% | Incidence of acute urinary retention ([5]; SEQ ID NO: 66 intraprostatic followed by oral medications or another injection of SEQ ID NO: 66, followed up to 6 years, p < .04): 2%*

From patent US10172910B2, “Method of preventing or reducing the incidence of acute urinary retention” (Nymox Corporation, priority 2016, dated 2019)
